From patent US20090119801A1, “Method for preserving cut flowers, cut flower preservation kit, method for manufacturing processed cut flowers, and processed cut flowers” (SUNTORY FLOWERS LIMITED, priority 2007, published 2009)

How the values were obtained:
[1] = Volatilization rate of organic solvents (Table 2); assay type: physicochemical
[2] = logP; cited from earlier work

SMILES	volatilization rate (%) [1] [%]	partition coefficient [2]
OCC(O)CO [glycerin]	0	–
C1COCCO1 [1,4-dioxane]	–	−0.271
OCCO [ethylene glycol]	0	–
CCCCC(CC)COCCO (stereo not shown) [2-(2-ethylhexyloxy)ethanol]	1	–
CC(O)CC(C)(C)O (stereo not shown) [2-methyl-2,4-pentanediol]	3	–
CO [Methanol]	–	−0.719
CCCC(O)C(CC)CO (stereo not shown) [2-ethyl-1,3-hexanediol]	0	–
CCCCC(CC)COCCOCCO (stereo not shown) [2-[2-(2-ethylhexyloxy)ethoxy]ethanol]	0	–
CC(CCO)CCO [3-methyl-1,5-pentanediol]	0	–
CC(C)=O [acetone]	–	−0.157
